These are literature values, as cited in patent US10548855B2, “Memantine combinations and use” (CHASE PHARMACEUTICALS CORPORATION, priority 2016, dated 2020).

For this data set, the system named is mice. The note with it: water maze, 2 mg/kg.

SMILES strings stand for the structures.

With `CC12CC3CC(C)(C1)CC(N)(C3)C2` [memantine, 3,5-dimethyladamantan-1-amine], the “effect on scopolamine-induced learning deficits” value is on record as “reverses scopolamine-induced learning deficits”.
